Target: T1, MeCP2-TBL1 interaction (MeCP2-SmBiT / TBL1-LgBiT) (Mus musculus, UniProt Q9QXE7)
T1 construct: expressed in transfected cells; crude lysate used as a cell-free assay
T1 sequence (Q9QXE7 166-527): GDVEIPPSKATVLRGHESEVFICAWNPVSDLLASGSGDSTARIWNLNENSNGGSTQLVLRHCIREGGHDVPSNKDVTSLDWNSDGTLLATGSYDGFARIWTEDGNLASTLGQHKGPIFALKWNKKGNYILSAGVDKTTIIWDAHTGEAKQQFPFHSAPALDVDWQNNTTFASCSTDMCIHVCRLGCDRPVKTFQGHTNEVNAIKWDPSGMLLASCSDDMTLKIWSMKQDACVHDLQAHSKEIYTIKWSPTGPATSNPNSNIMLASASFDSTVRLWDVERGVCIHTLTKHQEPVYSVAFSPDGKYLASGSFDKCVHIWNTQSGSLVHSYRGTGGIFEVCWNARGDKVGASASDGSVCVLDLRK
Assay: MeCP2-TBL1 NanoLuc luciferase complementation assay (cell-free, extracts of transfected HEK293 cells);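 also: each compound tested at 20 µM final concentration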
Type: binding, human
Procedure, shortened: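 Cell-free split NanoLuc: lysate of HEK293 cells co-expressing the MeCP2 C-terminal half-SmBiT and TBL1 WD domain-LgBiT, mixed 1:1 with furimazine. After 30 min at room temperature, luminescence was plate-median normalized.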

[1] = primary screen of the Asinex library, sheet "Sargen output Asinex library", one well per compound
[2] = primary screen of the Asinex library, sheet "Sargen output Asinex library", one well per compound, Batch Ref. 1
[3] = primary screen of Asinex library, single well per compound

Structure (SMILES)	Inhibition percent [1]	Inhibition percent [3]	also measured
COc1ccc(C(=O)N2CCCC(Cc3ccc4ncccc4c3)C2)cc1NCc1ccncc1 (centres unmarked) [BDH_32359951]	-4.50%		
Cc1ccc(Oc2cccc(C3CN(C(=O)c4cccc(Cn5ccnc5)c4)CCO3)n2)cc1 (centres unmarked) [BDH_32360064]			Inhibition percent [2]: 8.15%
Cc1cccc(Oc2cncc(C3CCCN(C(=O)c4cccc(Cn5ccnc5C)c4)C3)n2)c1 (centres unmarked) [BDH_32360361]	0.07%		
O=C(c1ccccc1CN1CCOCC1)N1C2CCC1CC(Cc1cncc3ccccc13)C2 (centres unmarked) [BDH_32360830]	-0.42%		
CC1(C(=O)N2CCCC(Cc3cccc4ccncc34)CC2)CCN(C(=O)c2ccccc2)CC1 (centres unmarked) [BDH_32360998]			Inhibition percent [2]: -2.76%
Cc1cc(Oc2ccc(F)cc2)nc(C2CCCN(C(=O)c3cccc(Cn4ccnc4)c3)C2)n1 (centres unmarked) [BDH_32361331]	1.28%		
C[C@]12C[C@@H](c3ccc(F)cc3)N(C(=O)c3cccc(Oc4ncccn4)c3)[C@H]1CCCCC(=O)N2 [BDH_32362535]		-1.66	
COc1ccc(Oc2cncc(C3CCN(C(=O)C4(c5ccccc5)CCOCC4)CC3)n2)cc1 [BDH_32362557]			Inhibition percent [2]: 3.43%
O=C(c1ccccc1Cn1ccnc1)N1CCCC(c2cccc(Cc3ccc(F)cc3)n2)C1 (centres unmarked) [BDH_32363926]			Inhibition percent [2]: 1.46%
O=C(c1cccc(Oc2ncccn2)c1)N1CC[C@H]2[C@H]1CCCCC(=O)N2Cc1ccccc1 [BDH_32363931]	-2.83%		
Cc1c(C(=O)N2CCC(O)(CN3CCN(c4ccccc4)CC3)C2)cccc1N1CCOCC1 (centres unmarked) [BDH_32364008]	-0.54%		
Cc1nccn1Cc1ccccc1C(=O)N1CCCC(c2cncc(Oc3ccccc3)n2)C1 (centres unmarked) [BDH_32364323]	-2.15%		
Cc1nc(N(C)C)cc(C2(C)CCCN(C(=O)c3ccc(Cl)c(N4CCOCC4)c3)C2)n1 (centres unmarked) [BDH_32364491]			Inhibition percent [2]: -1.79%
Cc1cc(Oc2ccc(F)cc2)nc(C2CCCCN2C(=O)c2cccc(-n3cnnc3)c2)n1 (centres unmarked) [BDH_32364593]		-1.56	
COc1ccccc1Oc1cccc(C2CCN(C(=O)c3ccnc(N4CCOCC4)c3)CC2)n1 [BDH_32364726]			Inhibition percent [2]: 2.70%
Cc1cc(Oc2ccc(F)cc2)nc(C2CCCCN2C(=O)c2ccnc(-c3cncnc3)c2)n1 (centres unmarked) [BDH_32364851]	-4.83%		
Cc1cc(Oc2ccc(F)cc2)nc(C2CCCCN2C(=O)c2cccc(-c3cncnc3)n2)n1 (centres unmarked) [BDH_32364853]		-0.96	
CC(=O)N[C@@]12CN(C)CC[C@@H]1[C@@H](c1ccccc1)N(C(=O)c1cccc(-n3nc(C)cc3C)c1)C2 [BDH_32365020]		-3.43	
Cn1cc(-c2cccc(C(=O)N3CCCC(c4cccc(Cc5ccc(F)cc5)n4)C3)n2)cn1 (centres unmarked) [BDH_32365360]	7.56%		
Cn1cc(-c2ccc(C(=O)N3CCCC(c4cccc(Cc5ccc(F)cc5)n4)C3)cn2)cn1 (centres unmarked) [BDH_32365364]			Inhibition percent [2]: 4.12%
CN1CCN(c2cc(C(=O)N3CCC(O)(CN4CCN(c5ccccc5)CC4)C3)ccn2)CC1 (centres unmarked) [BDH_32365527]		-1.97	
COc1cccc(Oc2cc(C)nc(C3CCCCN3C(=O)c3cccc(-n4cnnc4)c3)n2)c1 (centres unmarked) [BDH_32365761]	-5.24%		

Structure (SMILES)	Inhibition percent [1]	Inhibition percent [3]	also measured
COc1cccc(Nc2ncccc2C(=O)N2CCOCC(Cc3nccn4cccc34)C2)c1 (centres unmarked) [BDH_32366009]			Inhibition percent [2]: -5.94%
Cc1cc(Oc2ccccc2F)nc(C2CCCCN2C(=O)c2ccnc(-c3cncnc3)c2)n1 (centres unmarked) [BDH_32366371]		0.18	
Cn1cc(-c2cc(C(=O)N3CCC(c4cncc(-c5cccc(Cl)c5)n4)CC3)ccn2)cn1 [BDH_32366963]			Inhibition percent [2]: 1.59%
O=C1CCCN1CCOc1cccc(C(=O)N2C3CCC2CC(Cc2cnc4[nH]ccc4c2)C3)c1 (centres unmarked) [BDH_32367285]			Inhibition percent [2]: -0.20%
Cc1cccc(Cc2cccc(C3CCCN(C(=O)c4ccnc(-c5cncnc5)c4)C3)n2)c1 (centres unmarked) [BDH_32367369]		-1.96	
CC(=O)N[C@@]12CN(C)CC[C@@H]1[C@@H](c1ccccc1)N(C(=O)c1cccc(Oc3ncccn3)c1)C2 [BDH_32367667]	-3.64%		
CC(C)(NC(=O)Cc1cccc(F)c1)C(=O)N1CCCC2(CC1)CN(c1ccccc1)C(=O)O2 (centres unmarked) [BDH_32367867]		2.91	
Cc1ccc(C2(C(=O)N3CCC(CC(=O)Nc4ccc5nccnc5c4)CC3)CCOCC2)cc1 [BDH_32368328]			Inhibition percent [2]: -1.52%
Cc1cc(Oc2ccccc2F)nc(C2CCN(C(=O)c3cccc(-c4cncnc4)n3)CC2)n1 [BDH_32368986]			Inhibition percent [2]: 1.94%
Cc1cc(Oc2ccc(F)cc2)nc(C2CCN(C(=O)c3cncc(-c4cncnc4)c3)CC2)n1 [BDH_32369058]	-2.06%		
O=C(c1cccc(Oc2ncccn2)c1)N1CCCC2(CC1)CN(c1cccc(F)c1)C(=O)O2 (centres unmarked) [BDH_32369515]		-4.84	
COc1ccccc1Oc1cccc(C2CCN(C(=O)c3ccc(-c4cncnc4)nc3)CC2)n1 [BDH_32370065]		-2.43	
Cc1cc(Oc2ccccc2F)nc(C2CCN(C(=O)c3cncc(-c4cncnc4)c3)CC2)n1 [BDH_32370406]	0.98%		
Cc1nccn1Cc1cccc(C(=O)N2[C@H](Cc3ccccc3)C[C@]3(C)NC(=O)CCC[C@H]23)c1 [BDH_32370660]	-3.96%		
CNC(=O)C1CN(C(=O)C2(C)CCN(C(=O)c3ccccc3)CC2)CCN1Cc1ccccc1 (centres unmarked) [BDH_32370904]		-3.09	
O=C1OC2(CCCN(C(=O)c3ccnc(N4CCOCC4)c3)CC2)CN1CCc1ccccc1 (centres unmarked) [BDH_32370969]	-1.73%		
Cc1ccc(C(=O)N2C[C@@H](c3ccc(F)cc3)[C@@]3(CCCC(=O)N3)C2)cc1NCc1ccccn1 [BDH_32371225]		-3.76	
O=C1COC2(CCCN(C(=O)c3ccccc3Cn3ccnc3)CC2)CN1CCc1ccccc1 (centres unmarked) [BDH_32371928]		-2.75	
CC1(C(=O)N2CCOCC(Cc3ccc4ncccc4c3)C2)CCN(C(=O)c2ccccc2)CC1 (centres unmarked) [BDH_32372082]			Inhibition percent [2]: 0.77%
COc1ccc(C2(C(=O)N3CCC4(CC3)CC(Oc3ccccc3F)CO4)CCOCC2)cc1 (centres unmarked) [BDH_32372513]	-1.24%		
CNC(=O)c1cccc(C2CN(C(=O)c3ccc(OCc4ccccn4)c(OC)c3)CCN2C)c1 (centres unmarked) [BDH_32373002]	4.71%		
Cn1cc(-c2cc(C(=O)N3CCCC(c4cccc(-c5cccc(C(N)=O)c5)n4)C3)ccn2)cn1 (centres unmarked) [BDH_32374050]	-6.35%		

More lines, main results first:

Inhibition percent [1]	Inhibition percent [3]	Structure (SMILES)	also measured
1.74%		O=C1CCCN1CCOc1cccc(C(=O)N2CCCC(Cc3cccc4cnccc34)CC2)c1 (centres unmarked) [BDH_32360253]	
2.59%		Cc1nonc1COc1ccccc1C(=O)N1CCCC(Cc2nccn3cccc23)CC1 (centres unmarked) [BDH_32360822]	
-0.32%		Cn1cc(C(=O)Nc2cccc(C(=O)N3CCCC(Cc4ccnc5ccccc45)CC3)c2)cn1 (centres unmarked) [BDH_32361062]	
	-0.14	Cn1cc(C(=O)Nc2cccc(C(=O)N3CCCC(Cc4cnc5ccccc5c4)CC3)c2)cn1 (centres unmarked) [BDH_32361063]	
-1.55%		Cc1cccc(Cc2cccc(C3CCCN(C(=O)c4ccnc(N5CCOCC5)c4)C3)n2)c1 (centres unmarked) [BDH_32361750]	
-0.71%		CC1(C(=O)N2CCOCC(Cc3ccc4cnccc4c3)C2)CCN(CCc2ccccc2)CC1 (centres unmarked) [BDH_32362344]	
-4.04%		CC1(C(=O)N2CCOCC(Cc3ccc4ccncc4c3)C2)CCN(CCc2ccccc2)CC1 (centres unmarked) [BDH_32362347]	
2.04%		Cc1cccc(Cc2cccc(C3CCCN(C(=O)c4ccnc(-c5cnn(C)c5)c4)C3)n2)c1 (centres unmarked) [BDH_32362596]	
	0.11	Cc1ccc(C(=O)N2CCC3(CC2)COC(Cc2cccc(F)c2)C3)cc1NCc1ccccn1 (centres unmarked) [BDH_32362747]	
	-3.40	Cc1cc(C(=O)N2CCC(Cc3cccc4cccnc34)CC2)nc(C2(C)CCN(C)CC2)n1 [BDH_32363559]	
	9.41	O=C(c1cccc(Nc2ncccn2)c1)N1CCC2(CC1)COC(Cc1cccc(F)c1)C2 (centres unmarked) [BDH_32363979]	
2.72%		Cn1cc(-c2cccc(C(=O)N3CCC(c4cccc(Cc5ccc(F)cc5)n4)CC3)n2)cn1 [BDH_32365359]	
4.29%		Cc1cc(CC2CCN(C(=O)C3(C)CCN(C(=O)Cc4cccc(F)c4)CC3)CC2)ccn1 [BDH_32366782]	
	-2.67	CC(=O)N1CCC(Cc2ccc(F)cc2)(C(=O)N2CCCC(Cc3cccc(C)n3)C2)CC1 (centres unmarked) [BDH_32369388]	
4.95%		CNC(=O)c1cc(C)nc(C2(C)CCN(C(=O)c3ccc(C)c(NCc4ccccn4)c3)CC2)n1 [BDH_32371078]	
1.17%		COc1ccc(C(=O)N2CCCC(Cc3cn4ccnc4cn3)CC2)cc1OCc1ccccn1 (centres unmarked) [BDH_32371251]	
	8.79	CN1C(=O)C2(CCN(C(=O)c3cccc(Nc4ncccn4)c3)CC2)CC1Cc1ccc(F)cc1 (centres unmarked) [BDH_32371589]	
-4.00%		O=C(c1ccccc1CN1CCOCC1)N1CCOCC(Cc2ccc3ccncc3c2)C1 (centres unmarked) [BDH_32372076]	
	-2.77	Cc1nccn1Cc1ccccc1C(=O)N1C[C@@H](c2cccc(F)c2)[C@@]2(CCCCC(=O)N2)C1 [BDH_32372714]	
-2.49%		O=C1CCCN1CCOc1ccccc1C(=O)N1CCCC(Cc2cn3ccnc3cn2)CC1 (centres unmarked) [BDH_32372856]	
	0.44	COCC(=O)N1CCC(C)(C(=O)N2CCCC2c2ccnc(-c3cccc(Cl)c3)n2)CC1 (centres unmarked) [BDH_32373816]	

Source: paper PMC9995496, “A screen for MeCP2-TBL1 interaction inhibitors using a luminescence-based assay” (Scientific Reports, 2023)
